Earlier results on one molecule are cited in PubChem BioAssay AID1259409 (Chemical Carcinogenesis Research Information System (CCRIS), 2018).

This data set deals with rodent chemically induced tumor inhibition, incidence and multiplicity. Put plainly: CCRIS tumor inhibitor studies. To be noted: Route [Inhibitor]: ORAL, Promoter: NONE USED.

For the molecule `CCNC(=O)/C=C(C)/C=C/C=C(C)/C=C/C1=C(C)CCCC1(C)C`, the “tumour outcome (control, treated, inhibition, significance)” value by setting is: (Carcinogen: N-METHYL-N-NITROSOUREA, 684-93-5, Dose [Inhibitor]: 2 MMOL/KG DIET DAILY STARTING 12 D AFTER CARCINOGEN TREATMENT THROUGH ABOUT 8 MO AFTER CARCINOGEN DOSE (STUDY DURATION:, Species: RAT, Strain/Sex: F344/MALE, Target Tissue: Type of Lesion: COLON: ADENOMA, Dose [Carcinogen]: 2.5 MG 1/WK FOR 2 WK) 16/39 (41%), 10/30 (33%), 20%, not significant; (Carcinogen: N-METHYL-N-NITROSOUREA, 684-93-5, Dose [Inhibitor]: 327 MG/KG DIET DAILY STARTING 1 WK AFTER LAST CARCINOGEN TREATMENT AND CONTINUING FOR 6 MO (STUDY DURATION: 9 MO), Species: HAMSTER, Strain/Sex: SYRIAN/MALE, Target Tissue: Type of Lesion: TRACHEA: BENIGN EPITHELIAL NEOPLASM, Dose [Carcinogen]: 0.5% IN 1 ML PHOSPHATE-BUFFERED SALINE 1/WK FOR 12 WK) 6/63 (10%), 12/63 (19%), -90%, not significant; (Carcinogen: N-METHYL-N-NITROSOUREA, 684-93-5, Dose [Inhibitor]: 327 MG/KG DIET DAILY STARTING 1 WK AFTER LAST CARCINOGEN TREATMENT AND CONTINUING FOR 6 MO (STUDY DURATION: 9 MO), Species: HAMSTER, Strain/Sex: SYRIAN/MALE, Target Tissue: Type of Lesion: TRACHEA: CARCINOMA, Dose [Carcinogen]: 0.5% IN 1 ML PHOSPHATE-BUFFERED SALINE 1/WK FOR 12 WK) 4/63 (6%), 12/63 (19%), -217%, p<0.05; (Carcinogen: N-METHYL-N-NITROSOUREA, 684-93-5, Dose [Inhibitor]: 327 MG/KG DIET DAILY STARTING 1 WK AFTER LAST CARCINOGEN TREATMENT AND CONTINUING FOR 6 MO (STUDY DURATION: 9 MO), Species: HAMSTER, Strain/Sex: SYRIAN/MALE, Target Tissue: Type of Lesion: TRACHEA: EPITHELIAL NEOPLASM, Dose [Carcinogen]: 0.5% IN 1 ML PHOSPHATE-BUFFERED SALINE 1/WK FOR 12 WK) 10/63 (16%), 24/63 (38%), -138%, p<0.01; (Carcinogen: N-METHYL-N-NITROSOUREA, 684-93-5, Dose [Inhibitor]: 327 MG/KG IN DIET DAILY FOR 6 MO STARTING 1 WK AFTER FINAL CARCINOGEN DOSE (STUDY DURATION: 9 MO), Species: HAMSTER, Strain/Sex: SYRIAN/MALE, Target Tissue: Type of Lesion: TRACHEA: BENIGN EPITHELIAL NEOPLASM, Dose [Carcinogen]: 0.5% SOLUTION FOR 5 SECOND EXPOSURE 1/WK FOR 12 WK) 6/63 (10%), 12/63 (19%), -90%, not significant; (Carcinogen: N-METHYL-N-NITROSOUREA, 684-93-5, Dose [Inhibitor]: 327 MG/KG IN DIET DAILY FOR 6 MO STARTING 1 WK AFTER FINAL CARCINOGEN DOSE (STUDY DURATION: 9 MO), Species: HAMSTER, Strain/Sex: SYRIAN/MALE, Target Tissue: Type of Lesion: TRACHEA: CARCINOMA, Dose [Carcinogen]: 0.5% SOLUTION FOR 5 SECOND EXPOSURE 1/WK FOR 12 WK) 4/63 (6%), 12/63 (19%), -216%, p<0.05. Moreover, the “tumour outcome (control, treated, inhibition, significance)” value is recorded as 10/63 (16%), 24/63 (38%), -138%, p<0.01 (Carcinogen: N-METHYL-N-NITROSOUREA, 684-93-5, Dose [Inhibitor]: 327 MG/KG IN DIET DAILY FOR 6 MO STARTING 1 WK AFTER FINAL CARCINOGEN DOSE (STUDY DURATION: 9 MO), Species: HAMSTER, Strain/Sex: SYRIAN/MALE, Target Tissue: Type of Lesion: TRACHEA: EPITHELIAL NEOPLASM, Dose [Carcinogen]: 0.5% SOLUTION FOR 5 SECOND EXPOSURE 1/WK FOR 12 WK); 5/40 (13%), 1/40 (3%), 77%, not calculated (Carcinogen: N-METHYL-N-NITROSOUREA, 684-93-5, Dose [Inhibitor]: 654 MG/KG DIET DAILY FOR 24 WK STARTING 5 D AFTER LAST DOSE OF CARCINOGEN (STUDY DURATION: 32 WK), Species: RAT, Strain/Sex: F344/MALE, Target Tissue: Type of Lesion: COLON: SARCOMA, Dose [Carcinogen]: 0.5 MG 2/WK FOR 8 WK); 60%, 65%, -8%, not significant (Carcinogen: N-METHYL-N-NITROSOUREA, 684-93-5, Dose [Inhibitor]: 654 MG/KG DIET DAILY FOR 24 WK STARTING 5 D AFTER LAST DOSE OF CARCINOGEN (STUDY DURATION: 32 WK), Species: RAT, Strain/Sex: F344/MALE, Target Tissue: Type of Lesion: COLON: TUMOR, Dose [Carcinogen]: 0.5 MG 2/WK FOR 8 WK); 62%, 62%, 0%, not significant (Carcinogen: N-METHYL-N-NITROSOUREA, 684-93-5, Dose [Inhibitor]: 654 MG/KG DIET DAILY FOR 38 WK STARTING 5 D AFTER LAST DOSE OF CARCINOGEN (STUDY DURATION: 44 WK), Species: RAT, Strain/Sex: F344/MALE, Target Tissue: Type of Lesion: COLON: TUMOR, Dose [Carcinogen]: 0.5 MG 2/WK FOR 6 WK); 31%, 30%, 3%, not significant (Carcinogen: N-METHYL-N-NITROSOUREA, 684-93-5, Dose [Inhibitor]: 654 MG/KG DIET DAILY FOR 48 WK STARTING 5 D AFTER LAST DOSE OF CARCINOGEN (STUDY DURATION: 52 WK), Species: RAT, Strain/Sex: F344/MALE, Target Tissue: Type of Lesion: COLON: TUMOR, Dose [Carcinogen]: 0.5 MG 2/WK FOR 4 WK); 4/20 (20%), 17/37 (46%), -130%, not significant (Carcinogen: N-NITROBIS(2-OXOPROPYL)AMINE, 60559-38-4, Dose [Inhibitor]: 0.5 OR 1.0 MMOL/KG DIET DAILY STARTING 1 WK AFTER CARCINOGEN TREATMENT AND CONTINUING THROUGH THE END OF THE STUDY (STUD, Species: HAMSTER, Strain/Sex: SYRIAN/FEMALE, Target Tissue: Type of Lesion: LIVER: BENIGN TUMOR, Dose [Carcinogen]: 40 MG/KG BW ONCE). The “tumour outcome (control, treated, inhibition, significance)” value (Carcinogen: N-NITROBIS(2-OXOPROPYL)AMINE, 60559-38-4, Dose [Inhibitor]: 0.5 OR 1.0 MMOL/KG DIET DAILY STARTING 1 WK AFTER CARCINOGEN TREATMENT AND CONTINUING THROUGH THE END OF THE STUDY (STUD, Species: HAMSTER, Strain/Sex: SYRIAN/FEMALE, Target Tissue: Type of Lesion: ND: TOTAL TUMOR, Dose [Carcinogen]: 40 MG/KG BW ONCE) is 17/20 (85%), 32/37 (86%), 1%, not significant; the “tumour outcome (control, treated, inhibition, significance)” value (Carcinogen: N-NITROBIS(2-OXOPROPYL)AMINE, 60559-38-4, Dose [Inhibitor]: 0.5 OR 1.0 MMOL/KG DIET DAILY STARTING 1 WK AFTER CARCINOGEN TREATMENT AND CONTINUING THROUGH THE END OF THE STUDY (STUD, Species: HAMSTER, Strain/Sex: SYRIAN/FEMALE, Target Tissue: Type of Lesion: PANCREAS: DUCTULAR ADENOMA, Dose [Carcinogen]: 10 MG/KG BW ONCE) is 5/23 (23%), 13/25 (52%), -126%, not significant; the “tumour outcome (control, treated, inhibition, significance)” value (Carcinogen: N-NITROBIS(2-OXOPROPYL)AMINE, 60559-38-4, Dose [Inhibitor]: 0.5 OR 1.0 MMOL/KG DIET DAILY STARTING 1 WK AFTER CARCINOGEN TREATMENT AND CONTINUING THROUGH THE END OF THE STUDY (STUD, Species: HAMSTER, Strain/Sex: SYRIAN/FEMALE, Target Tissue: Type of Lesion: PANCREAS: DUCTULAR ADENOMA, Dose [Carcinogen]: 40 MG/KG BW ONCE) is on record as 12/20 (60%), 27/37 (73%), -22%, not significant; the “tumour outcome (control, treated, inhibition, significance)” value (Carcinogen: N-NITROBIS(2-OXOPROPYL)AMINE, 60559-38-4, Dose [Inhibitor]: 0.5 OR 1.0 MMOL/KG DIET DAILY STARTING 1 WK AFTER CARCINOGEN TREATMENT AND CONTINUING THROUGH THE END OF THE STUDY (STUD, Species: HAMSTER, Strain/Sex: SYRIAN/FEMALE, Target Tissue: Type of Lesion: PANCREAS: DUCTULAR CARCINOMA, Dose [Carcinogen]: 10 MG/KG BW ONCE) was 6/23 (27%), 6/25 (24%), 11%, not significant; the “tumour outcome (control, treated, inhibition, significance)” value (Carcinogen: N-NITROBIS(2-OXOPROPYL)AMINE, 60559-38-4, Dose [Inhibitor]: 0.5 OR 1.0 MMOL/KG DIET DAILY STARTING 1 WK AFTER CARCINOGEN TREATMENT AND CONTINUING THROUGH THE END OF THE STUDY (STUD, Species: HAMSTER, Strain/Sex: SYRIAN/MALE, Target Tissue: Type of Lesion: LIVER: BENIGN TUMOR, Dose [Carcinogen]: 40 MG/KG BW ONCE) was 5/24 (21%), 25/41 (62%), -195%, p<0.05; the “tumour outcome (control, treated, inhibition, significance)” value (Carcinogen: N-NITROBIS(2-OXOPROPYL)AMINE, 60559-38-4, Dose [Inhibitor]: 0.5 OR 1.0 MMOL/KG DIET DAILY STARTING 1 WK AFTER CARCINOGEN TREATMENT AND CONTINUING THROUGH THE END OF THE STUDY (STUD, Species: HAMSTER, Strain/Sex: SYRIAN/MALE, Target Tissue: Type of Lesion: ND: TOTAL TUMOR, Dose [Carcinogen]: 10 MG/KG BW ONCE) is on record as 12/22 (54%), 24/31 (77%), -43%, not significant.
